Measured values: ChEMBL document CHEMBL4706557, “Synthesis and in vitro and in vivo biological evaluation of novel derivatives of flexicaulin A as antiproliferative agents” (Eur J Med Chem, 2020)
Calls of active or inactive are those of the source. The calls are words filed in the database; no cut-off is given here.

How the values were obtained:
HUVEC [1] = experiment: Cytotoxicity against HUVEC assessed as reduction in survival rate after 24 to 72 hrs by SRB assay; assay type: cell-based; settings: human, time 24-72 hrs
ECa-109 cell line [2] = experiment: Induction of apoptosis in human EC109 cells assessed as increase in cleaved caspase 9 expression after 24 hrs by Western blot analysis; assay type: functional, cell-based
ECa-109 cell line [3] = experiment: Antiproliferative activity against human EC109 cells assessed as inhibition of cell growth at 0.06 to 4 uM preincubated with N-acetylcysteine for 4 hrs followed by compound addition and measured after 24 hrs by SRB assay; assay type: functional, cell-based; settings: dose 0.06-4 µM
GES1 = experiment: Cytotoxicity against human GES1 cells assessed as inhibition of cell growth incubated for 72 hrs by SRB assay; assay type: cell-based; settings: GES1, 72 h
ECa-109 cell line [4] = experiment: Induction of apoptosis in human EC-109 cells assessed as apoptotic rate at 3 uM after 24 hrs by Annexin V-FITC/propidium iodide staining based flow cytometry (reference value: 5.7 %); assay type: functional
[5] = Toxicity in BALB/c mouse assessed as HCT at 20 mg/kg, ip administered once daily for 14 days (reference value: 49.08 +/- 1.56 %); assay type: organism-based; settings: in vivo, 336 h, time 14 day
ECa-109 cell line [6] = experiment: Induction of apoptosis in human EC109 cells assessed as increase in cleaved PARP expression after 24 hrs by Western blot analysis; assay type: functional, cell-based
HUVEC [7] = experiment: Cytotoxicity against HUVEC assessed as inhibition of cell growth incubated for 72 hrs by SRB assay; assay type: cell-based; settings: Homo sapiens
ECa-109 cell line [8] = experiment: Induction of morphological changes in human EC109 cells assessed as appearance of contracted and rounded cells in presence of N-acetylcysteine; assay type: functional, cell-based
[9] = Toxicity in BALB/c mouse assessed as HGB at 40 mg/kg, ip administered once daily for 14 days (reference value: 153.20 +/- 3.87 g/L); assay type: organism-based; settings: in vivo, 336 h, time 14 day
ECa-109 cell line [10] = experiment: Induction of apoptosis in human EC109 cells assessed as increase in phosphorylated JNK expression incubated for 24 hrs by Western blot analysis; assay type: functional, cell-based
ECa-109 cell line [11] = experiment: Induction of apoptosis in human EC-109 cells xenografted in BALB/c mouse assessed as change in Bax expression in tumor tissue at 20 mg/kg, ip QD for 14 days by Western blotting analysis relative to control; assay type: functional, organism-based; settings: time 14.0 day
ECa-109 cell line [12] = experiment: Induction of mitochondrial depolarization in human EC-109 cells assessed as depolarized cell population at 3 uM measured after 24 hrs by JC1 dye based flow cytometry (reference value: 4.2 %); assay type: functional
ECa-109 cell line [13] = experiment: Induction of apoptosis in human EC109 cells assessed as increase in Bax/Bcl2 ratio at 0.75 to 3 uM after 24 hrs by Western blot analysis; assay type: functional, cell-based; settings: dose 0.75-3 µM
[14] = Toxicity in BALB/c mouse assessed as PLT at 40 mg/kg, ip administered once daily for 14 days (reference value: 788.60 +/- 71.35 10^9/L); assay type: organism-based; settings: in vivo, 336 h, time 14 day
[15] = Toxicity in BALB/c mouse assessed as RDW at 40 mg/kg, ip administered once daily for 14 days (reference value: 14.18 +/- 0.26 %); assay type: organism-based; settings: in vivo, 336 h, time 14 day
ECa-109 cell line [16] = experiment: Induction of apoptosis in human EC109 cells assessed as change in Bax expression at 0.75 to 3 uM after 24 hrs by Western blot analysis; assay type: functional, cell-based; settings: dose 0.75-3 µM
[17] = Toxicity in BALB/c mouse assessed as MCV at 40 mg/kg, ip administered once daily for 14 days (reference value: 49.90 +/- 0.37 fL); assay type: organism-based; settings: in vivo, 336 h, time 14 day
ECa-109 cell line [18] = experiment: Antiproliferative activity against human EC109 cells assessed as reduction in survival rate at 0 to 8 uM by SRB assay; assay type: functional, cell-based; settings: dose 0-8 µM, TDE = time-dependent effect
ECa-109 cell line [19] = experiment: Induction of apoptosis in human EC-109 cells assessed as apoptotic rate at 3 uM after 24 hrs by Annexin V-FITC/propidium iodide staining based flow cytometry (reference value: 5.3 %); assay type: functional
ECa-109 cell line [20] = experiment: Induction of morphological changes in human EC109 cells assessed as appearance of contracted and rounded cells; assay type: functional, cell-based
ECa-109 cell line [21] = experiment: Induction of mitochondrial depolarization in human EC-109 cells assessed as depolarized cell population at 0.75 uM measured after 24 hrs by JC1 dye based flow cytometry (reference value: 4.2 %); assay type: functional
[22] = Toxicity in BALB/c mouse assessed as HCT at 40 mg/kg, ip administered once daily for 14 days (reference value: 49.08 +/- 1.56 %); assay type: organism-based; settings: in vivo, 336 h, time 14 day
[23] = Toxicity in BALB/c mouse assessed as PLT at 20 mg/kg, ip administered once daily for 14 days (reference value: 788.60 +/- 71.35 10^9/L); assay type: organism-based; settings: in vivo, 336 h, time 14 day
ECa-109 cell line [24] = experiment: Induction of morphological changes in human EC109 cells assessed as decrease in number of cells in presence of N-acetylcysteine; assay type: functional, cell-based
ECa-109 cell line [25] = experiment: Induction of apoptosis in human EC109 cells assessed as increase in phosphorylated ASK1 expression incubated for 24 hrs by Western blot analysis; assay type: functional, cell-based
ECa-109 cell line [26] = experiment: Induction of apoptosis in human EC-109 cells assessed as apoptotic rate at 3 uM after 48 hrs by Annexin V-FITC/propidium iodide staining based flow cytometry (reference value: 3.8 %); assay type: functional
ECa-109 cell line [27] = experiment: Induction of apoptosis in human EC109 cells assessed as increase in phosphorylated MKK4 expression incubated for 24 hrs by Western blot analysis; assay type: functional, cell-based
[28] = Toxicity in BALB/c mouse assessed as abnormalities in lungs at 20 to 40 mg/kg, ip administered once daily for 14 days by HE staining based assay; assay type: organism-based; settings: in vivo, 336 h, dose 20-40 mg/kg, time 14 day
[29] = Toxicity in nude BALB/c mouse xenografted with human EC109 cells assessed as change in body weight at 20 to 40 mg/kg, ip administered every day for 14 days; assay type: organism-based; settings: in vivo, 336 h, dose 20-40 mg/kg, time 14 day
ECa-109 cell line [30] = experiment: Induction of apoptosis in human EC-109 cells assessed as apoptotic rate at 1.5 uM after 48 hrs by Annexin V-FITC/propidium iodide staining based flow cytometry (reference value: 3.2 %); assay type: functional
ECa-109 cell line [31] = experiment: Induction of apoptosis in human EC109 cells assessed as increase in intracellular ROS level at 3 uM preincubated with N-acetylcysteine for 4 hrs followed by compound addition and incubated for 24 hrs by DCFH-DA staining based flow cytometry analysis (reference value: 0.6 %); assay type: functional
ECa-109 cell line [32] = experiment: Induction of apoptosis in human EC109 cells assessed as change in phosphorylated MKK4 expression at 3 uM incubated for 24 hrs in presence of N-acetylcysteine by Western blot analysis; assay type: functional, cell-based
ECa-109 cell line [33] = experiment: Induction of mitochondrial depolarization in human EC-109 cells assessed as depolarized cell population at 1.5 uM measured after 24 hrs by JC1 dye based flow cytometry (reference value: 4.2 %); assay type: functional
ECa-109 cell line [34] = experiment: Induction of apoptosis in human EC109 cells assessed as increase in intracellular ROS level at 3 uM incubated for 24 hrs by DCFH-DA staining based flow cytometry analysis (reference value: 0.6 %); assay type: functional
ECa-109 cell line [35] = experiment: Induction of apoptosis in human EC-109 cells assessed as apoptotic rate at 3 uM after 48 hrs by Annexin V-FITC/propidium iodide staining based flow cytometry (reference value: 3.2 %); assay type: functional

Structure (SMILES): C=C1C(=O)[C@@]23[C@H](O)C[C@@H]4C(C)(C)CCC[C@@]4(COC(C)=O)[C@@H]2[C@@H](O)C[C@H]1[C@H]3OC(=O)c1ccc(CCl)cc1
- Activity (HUVEC [1]): Dose-dependent effect
- Activity (ECa-109 cell line [2]): Dose-dependent effect
- inhibition (ECa-109 cell line [3]): inactive
- IC50 (GES1): 520 nM
- Activity (ECa-109 cell line [4]): 33.7%
- Activity [5]: 46.67%
- Activity (ECa-109 cell line [6]): Dose-dependent effect
- IC50 (HUVEC [7]): 490 nM
- Activity (ECa-109 cell line [8]): inactive
- Activity [9]: 144.4 g/L
- Activity (ECa-109 cell line [10]): Dose-dependent effect
- Activity (ECa-109 cell line [11]): inactive
- Activity (ECa-109 cell line [12]): 70.7%
- Activity (ECa-109 cell line [13]): Active
- Activity [14]: 832.8 10^9/L
- Activity [15]: 14.73%
- Activity (ECa-109 cell line [16]): inactive
- Activity [17]: 49.36 fL
- inhibition (ECa-109 cell line [18]): Tde
- Activity (ECa-109 cell line [19]): 45.4%
- Activity (ECa-109 cell line [20]): Active
- Activity (ECa-109 cell line [21]): 26.3%
- Activity [22]: 46.26%
- Activity [23]: 754.8 10^9/L
- Activity (ECa-109 cell line [24]): inactive
- Activity (ECa-109 cell line [25]): Dose-dependent effect
- Activity (ECa-109 cell line [26]): 88.2%
- Activity (ECa-109 cell line [27]): Dose-dependent effect
- Activity [28]: Non-Toxic
- Activity [29]: Non-Toxic
- Activity (ECa-109 cell line [30]): 93.1%
- Activity (ECa-109 cell line [31]): 0.1%
- Activity (ECa-109 cell line [32]): inactive
- Activity (ECa-109 cell line [33]): 47.1%
- Activity (ECa-109 cell line [34]): 47%
- Activity (ECa-109 cell line [35]): 97%
